Assay results reported in patent US10220040B2, “Compounds, compositions and methods useful for cholesterol mobilization” (Cerenis Therapeutics Holding SA, priority 2010, dated 2019).

Key:
C57Bl/6J mice = assay: In vivo liver uptake of [3H]-labelled mouse HDL and LDL; settings: intravenous 10 nmole/kg
Protocol: FIG. 16A-J: Increase of bile secretion following activation of P2Y13r pathway in mice. C57Bl/6J mice (n=10) were fasted for 2 h and then intravenously injected with Cangrelor® or Compound IIa (10 nmoles/kg). Four hours later the gallbladders were removed and analyzed for: Bile acids content (FIG. 16A); Bile cholesterol content (FIG. 16B). C57Bl/6J mice (n=10) were fasted for 2 h followed by single oral dose of P2Y13r agonist Compound IIa at 3, 30 or 300 μg/kg. Six hours later bile acids contents (FIG. 16C); bile cholesterol content (FIG. 16D), and bile acid content of liver (FIG. 16E) were evaluated using HPLC and enzymatic kits for gallbladers. Plasma samples were collected at time 0 and after 6 h of treatment, then analyzed for: total cholesterol (▴), unesterified cholesterol (●), esterified cholesterol (▪) and HDL cholesterol (▾) determined using either enzymatic kits or Lipoprint® for HDL cholesterol (FIG. 16F). […] Radioactivity present in the liver was determined 2 hours later for the HDL or 5 hours later for the LDL. Cholesterol content of feces from treated animals (100 μg/kg) was determined by Charge aerosol detection (FIG. 16J). *p<0.05, **p<0.01. […]

HepG2 cells = assay: In vitro HDL internalization in human hepatocytes (HepG2) cells; format: cell-based; settings: compound 1 μM; 3H-labeled HDL 75 μg/ml, 10 min at 37° C.
Protocol: FIG. 3: Single-dose effect of the selected molecules on HDL internalization by HepG2 cells. Cells were incubated for 10 min at 37° C. with 75 μg/ml ^3H cholesterol Cholesteryl Oleate [Cholesteryl-1,2-^3H(N)] HDL, Reference Compound (100 nM) and illustrative compounds of the invention (1 μM). Data are expressed as the percentage of internalized radioactivity with respect to the control value (set as […]). *p<0.005, **p<0.0001.
The effect of illustrative compounds of the invention on HDL internalization was measured by an in vitro assay on HepG2 cells (FIG. 3). ^3H cholesterol Cholesteryl Oleate [Cholesteryl-1,2-^3H(N)] labeled HDL] (available from PerkinElmer http://www.perkinelmer.com/Catalog/Product/ID/NET746L001MC) was loaded on HepG2 cells in presence of illustrative compounds of the invention (final concentration 1 μM). […] It was determined that Compounds XIa, IIc, IIa and Ih (R-isomer) have a strong impact on HDL uptake by HepG2 cells; Compounds IIb, VIIa and VIIIa have a modest impact on HDL uptake by HepG2 cells.
^3H cholesterol Cholesteryl Oleate [Cholesteryl-1,2-^3H(N)] (Perkin Elmer) solution (250 μL) was dried and resuspended in acetone (250 μL). The solution was mixed with Lipoprotein delipidated serum (20 mL at 40 mg/mL) and DTNB (0.4 μM final concentration). HDL (7 mg) was added and incubated overnight at 4° C. on gentle rotation. The HDL was purified on KBr gradient as previously described.
Hepatocytes were plated at 300,000 cells/well in 6×-well plates. Two days later, the cells were washed once with DMEM and incubated for 1 hour in DMEM at 37° C. 75 μg of radio-labeled HDL (6500 dpm/μg) were added to the medium and incubated for 10 minutes at 37° C. The cells were washed once with DMEM (2 mL) and incubated for 1.5 hours in DMEM at 4° C., whereupon dissociation occurred. Then the cells were washed once more with cold DMEM (2 mL) and the incorporated cholesterol ether was retrieved from HepG2 cells by the addition of hexane:isopropanol (3:2) solution (1 mL).

CN(C)c1ncc(CN2CCC(c3cc(O)nc(N4CCOCC4)n3)CC2)cn1 [Compound IIa, 6-[1-(2-Dimethylaminopyrimidin-5-ylmethyl)-piperidin-4-yl]-2-morpholin-4-yl-pyrimidin-4-ol]
liver uptake of labelled HDL as compared to LDL (C57Bl/6J mice): specific stimulation | impact on HDL uptake by HepG2 cells (HepG2 cells): strong impact
